Laboratory results from PubChem BioAssay AID1918934 (Molecular Pharmacology Branch, DTP, NCI, 2023).

System: 292921-168-R-J2-PDC complex spheroid viability
Experiment: Anticancer human tumor 292921-168-R-J2-PDC patient-derived pancreatic carcinoma cell line growth inhibition
Conditions: for IC50: curve of first compound; for viability, T/C: stronger effect = lower value; active = viability on the fitted dose curve at most 10% of control; inactive = the rest
How it was run: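 Complex spheroids of tumor cells with HUVEC and human MSCs, exposed to iadademstat combined with other agents. Each agent tested in half-log steps from near clinical Cmax (else 10 microM top), DMSO ≤0.25%.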

[1] = second compound 0.1 µM, first compound 0.000316 µM
[2] = second compound 0.1 µM, first compound 0.001 µM
[3] = second compound 0.1 µM, first compound 0.00316 µM
[4] = second compound 0.1 µM, first compound 0.01 µM
[5] = second compound 0.1 µM, first compound 0.0316 µM
[6] = second compound 0.1 µM, first compound 0.1 µM
[7] = second compound 0.316 µM, first compound 0.000316 µM
[8] = second compound 0.316 µM, first compound 0.001 µM
[9] = second compound 0.316 µM, first compound 0.00316 µM
[10] = second compound 0.316 µM, first compound 0.01 µM
[11] = second compound 0.316 µM, first compound 0.0316 µM
[12] = second compound 0.316 µM, first compound 0.1 µM
[13] = second compound 1 µM, first compound 0.000316 µM
[14] = second compound 1 µM, first compound 0.001 µM
[15] = second compound 1 µM, first compound 0.00316 µM
[16] = second compound 1 µM, first compound 0.01 µM
[17] = second compound 1 µM, first compound 0.0316 µM
[18] = second compound 1 µM, first compound 0.1 µM
[19] = second compound 3.16 µM, first compound 0.000316 µM
[20] = second compound 3.16 µM, first compound 0.001 µM
[21] = second compound 3.16 µM, first compound 0.00316 µM
[22] = second compound 3.16 µM, first compound 0.01 µM
[23] = second compound 3.16 µM, first compound 0.0316 µM
[24] = second compound 3.16 µM, first compound 0.1 µM
[25] = second compound 10 µM, first compound 0.000316 µM
[26] = second compound 10 µM, first compound 0.001 µM
[27] = second compound 10 µM, first compound 0.00316 µM
[28] = second compound 10 µM, first compound 0.01 µM
[29] = second compound 10 µM, first compound 0.0316 µM
[30] = second compound 10 µM, first compound 0.1 µM
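Note: seven day compound exposure before luminescent viability read.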
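Throughout, for viability, T/C: 100% = DMSO vehicle control wells.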

CC(C)CC(NC(=O)C(Cc1ccccc1)NC(=O)c1cnccn1)B(O)O (stereo not given) + NC1CC1c1ccc(-c2cccc(O)c2)cc1
inactive: viability, T/C [1] 21.2% | viability, T/C [7] 18.8% | viability, T/C [13] 16.9% | viability, T/C [19] 15.4% | viability, T/C [25] 12.3%
active: viability, T/C [2] 1.11% | viability, T/C [3] 0.47% | viability, T/C [4] 0.39% | viability, T/C [5] 0.14% | viability, T/C [6] 0.17% | viability, T/C [8] 1.91% | viability, T/C [9] 0.24% | viability, T/C [10] 0.18% | viability, T/C [11] 0.18% | viability, T/C [12] 0.17% | viability, T/C [14] 1.68% | viability, T/C [15] 0.21% | viability, T/C [16] 0.19% | viability, T/C [17] 0.22% | viability, T/C [18] 0.17% | viability, T/C [20] 0.61% | viability, T/C [21] 0.17% | viability, T/C [22] 0.14% | viability, T/C [23] 0.46% | viability, T/C [24] 0.31% | viability, T/C [26] 0.8% | viability, T/C [27] 0.29% | viability, T/C [28] 0.54% | viability, T/C [29] 0.45% | viability, T/C [30] 0.25%
< 0.316 nM: IC50 (second compound 0.1 µM) | IC50 (second compound 0.316 µM) | IC50 (second compound 1 µM) | IC50 (second compound 3.16 µM) | IC50 (second compound 10 µM)

CC(C)CC(NC(=O)CNC(=O)c1cc(Cl)ccc1Cl)B1OC(=O)CC(CC(=O)O)(C(=O)O)O1 (stereo not given) + NC1CC1c1ccc(-c2cccc(O)c2)cc1
4.78 nM: IC50 (second compound 1 µM)
3.67 nM: IC50 (second compound 10 µM)
4.64 nM: IC50 (second compound 3.16 µM)
inactive: viability, T/C [1] 88.2% | viability, T/C [2] 93.4% | viability, T/C [3] 81.5% | viability, T/C [4] 19.6% | viability, T/C [7] 80% | viability, T/C [8] 84.3% | viability, T/C [9] 80.4% | viability, T/C [10] 17.9% | viability, T/C [13] 66.2% | viability, T/C [14] 74% | viability, T/C [15] 68.2% | viability, T/C [16] 17.2% | viability, T/C [19] 70.7% | viability, T/C [20] 71.2% | viability, T/C [21] 67.8% | viability, T/C [22] 14.5% | viability, T/C [25] 61.6% | viability, T/C [26] 67.1% | viability, T/C [27] 55.4% | viability, T/C [28] 11.8%
active: viability, T/C [5] 3.61% | viability, T/C [6] 1.34% | viability, T/C [11] 3.08% | viability, T/C [12] 1.87% | viability, T/C [17] 3.17% | viability, T/C [18] 1.85% | viability, T/C [23] 2.89% | viability, T/C [24] 1.44% | viability, T/C [29] 2.07% | viability, T/C [30] 0.75%
5.69 nM: IC50 (second compound 0.1 µM)
5.54 nM: IC50 (second compound 0.316 µM)

COc1cc(Nc2ncc3c(n2)-c2ccc(Cl)cc2C(c2c(F)cccc2OC)=NC3)ccc1C(=O)O + NC1CC1c1ccc(-c2cccc(O)c2)cc1
inactive: viability, T/C [3] 36.8% | viability, T/C [4] 40.9% | viability, T/C [5] 37.5% | viability, T/C [6] 31.9% | viability, T/C (second compound 0.1 µM, first compound 0.316 µM) 24.1% | viability, T/C (second compound 0.1 µM, first compound 1 µM) 16.4% | viability, T/C [9] 39.2% | viability, T/C [10] 44.5% | viability, T/C [11] 37.5% | viability, T/C [12] 31.4% | viability, T/C (second compound 0.316 µM, first compound 0.316 µM) 24.8% | viability, T/C (second compound 0.316 µM, first compound 1 µM) 16.5% | viability, T/C [15] 37.2% | viability, T/C [16] 35.9% | viability, T/C [17] 34.6% | viability, T/C [18] 26% | viability, T/C (second compound 1 µM, first compound 0.316 µM) 20.2% | viability, T/C (second compound 1 µM, first compound 1 µM) 15.9% | viability, T/C [21] 30.4% | viability, T/C [22] 36.5% | viability, T/C [23] 35.2% | viability, T/C [24] 28.1% | viability, T/C (second compound 3.16 µM, first compound 0.316 µM) 23.7% | viability, T/C (second compound 3.16 µM, first compound 1 µM) 15% | viability, T/C [27] 34.2% | viability, T/C [28] 32.7% | viability, T/C [29] 34.2% | viability, T/C [30] 28% | viability, T/C (second compound 10 µM, first compound 0.316 µM) 19.4% | viability, T/C (second compound 10 µM, first compound 1 µM) 14.9%
< 3.16 nM: IC50 (second compound 0.1 µM) | IC50 (second compound 0.316 µM) | IC50 (second compound 1 µM) | IC50 (second compound 3.16 µM) | IC50 (second compound 10 µM)

O=C(C=Cc1cccc(S(=O)(=O)Nc2ccccc2)c1)NO + NC1CC1c1ccc(-c2cccc(O)c2)cc1
< 9.49 nM: IC50 (second compound 0.316 µM) | IC50 (second compound 10 µM)
11.9 nM: IC50 (second compound 3.16 µM)
inactive: viability, T/C (second compound 0.1 µM, first compound 0.00949 µM) 59.3% | viability, T/C (second compound 0.1 µM, first compound 0.03 µM) 48.9% | viability, T/C (second compound 0.1 µM, first compound 0.0949 µM) 34.9% | viability, T/C (second compound 0.1 µM, first compound 0.3 µM) 25.2% | viability, T/C (second compound 0.316 µM, first compound 0.00949 µM) 52.5% | viability, T/C (second compound 0.316 µM, first compound 0.03 µM) 42.6% | viability, T/C (second compound 0.316 µM, first compound 0.0949 µM) 38.6% | viability, T/C (second compound 0.316 µM, first compound 0.3 µM) 24.9% | viability, T/C (second compound 1 µM, first compound 0.00949 µM) 54.4% | viability, T/C (second compound 1 µM, first compound 0.03 µM) 43.4% | viability, T/C (second compound 1 µM, first compound 0.0949 µM) 40.3% | viability, T/C (second compound 1 µM, first compound 0.3 µM) 22.8% | viability, T/C (second compound 3.16 µM, first compound 0.00949 µM) 52.1% | viability, T/C (second compound 3.16 µM, first compound 0.03 µM) 45.7% | viability, T/C (second compound 3.16 µM, first compound 0.0949 µM) 35.7% | viability, T/C (second compound 3.16 µM, first compound 0.3 µM) 22.8% | viability, T/C (second compound 10 µM, first compound 0.00949 µM) 45.2% | viability, T/C (second compound 10 µM, first compound 0.03 µM) 36.9% | viability, T/C (second compound 10 µM, first compound 0.0949 µM) 31.8% | viability, T/C (second compound 10 µM, first compound 0.3 µM) 18.7%
29.8 nM: IC50 (second compound 0.1 µM)
active: viability, T/C (second compound 0.1 µM, first compound 0.949 µM) 1.42% | viability, T/C (second compound 0.1 µM, first compound 3 µM) 0.23% | viability, T/C (second compound 0.316 µM, first compound 0.949 µM) 1.57% | viability, T/C (second compound 0.316 µM, first compound 3 µM) 0.46% | viability, T/C (second compound 1 µM, first compound 0.949 µM) 0.74% | viability, T/C (second compound 1 µM, first compound 3 µM) 0.53% | viability, T/C (second compound 3.16 µM, first compound 0.949 µM) 0.66% | viability, T/C (second compound 3.16 µM, first compound 3 µM) 0.11% | viability, T/C (second compound 10 µM, first compound 0.949 µM) 0.41% | viability, T/C (second compound 10 µM, first compound 3 µM) 0.15%
11.7 nM: IC50 (second compound 1 µM)
